Test results from patent publication US20250099548A1, “PHARMACEUTICAL COMPOSITION FOR PREVENTING OR TREATING DEGENERATIVE BRAIN DISEASES, CONTAINING GLUCAGON-LIKE PEPTIDE-1 AND INTERLEUKIN-1 RECEPTOR ANTAGONIST” (GI INNOVATION, INC., priority 2022, published 2025).

How the values were obtained:
[1] = molecular target: T1, IL-1Ra (interleukin-1 receptor alpha) (Homo sapiens, UniProt P14778); assay: Binding ability of GI210B1 measured with Octet RED 384 (AR2G biosensor); details: IL-1Ra 1 μg/ml coated on biosensor; GI210B1 15.6 nM to 1,000 nM
T1 construct: purchased R&D systems
T1 sequence (P14778 18-569): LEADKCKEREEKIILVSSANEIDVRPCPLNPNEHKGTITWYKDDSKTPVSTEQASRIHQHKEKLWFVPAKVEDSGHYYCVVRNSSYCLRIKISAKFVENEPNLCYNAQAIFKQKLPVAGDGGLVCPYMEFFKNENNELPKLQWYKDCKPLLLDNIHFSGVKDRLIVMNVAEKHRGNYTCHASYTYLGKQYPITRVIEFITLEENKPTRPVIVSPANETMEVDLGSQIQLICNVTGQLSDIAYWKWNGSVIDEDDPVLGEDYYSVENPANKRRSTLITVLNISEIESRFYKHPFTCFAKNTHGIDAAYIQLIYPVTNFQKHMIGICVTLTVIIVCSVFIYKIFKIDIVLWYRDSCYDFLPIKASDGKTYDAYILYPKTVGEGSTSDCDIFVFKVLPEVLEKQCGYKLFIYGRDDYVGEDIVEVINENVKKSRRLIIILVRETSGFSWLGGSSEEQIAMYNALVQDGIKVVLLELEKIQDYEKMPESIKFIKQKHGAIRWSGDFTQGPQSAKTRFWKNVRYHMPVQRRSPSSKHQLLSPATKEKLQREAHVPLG
Experimental: The binding ability of GI210B1, which was obtained through the method of Preparation Example 1 above, to IL-1Ra ([…]) was measured. At that time, the binding ability to IL-1Ra was confirmed using Octet RED 384 (ForteBio). The AR2G (amine reactive 2nd generation) biosensor was used by immersion in 1× kinetic buffer for 10 minutes. IL-1Ra (R&D systems) was prepared at a concentration of 1 μg/ml and coated on the biosensor, and the binding ability was confirmed at each concentration by serially diluting GI210B1 from 15.6 nM to 1,000 nM.

[2] = system: Tg-APP/PS1 mice; assay: Novel object recognition test; assay type: in vivo, mouse; details: Example 1, 1.2 mg/kg intraperitoneal, 4 times for 2 weeks from 6.5 months of age
Experimental: The test substance was prepared by diluting GI210B1 obtained in Preparation Example 1 in saline, and it was intraperitoneally administered to 6.5-month-old Tg-APP/PS1 mice at a concentration of 1.2 mg/kg a total of 4 times for 2 weeks (FIG. 10).
In the Tg-APP/PS1 mice intraperitoneally administered with GI210B1 at 6.5 months of age in Example 1.1 above, behavioral characteristics of cognitive function were evaluated at 7.5 to 8.0 months of age. In order to evaluate the behavioral characteristics of cognitive function, a novel object recognition test (NOR test), a passive avoidance test, and a water maze test were performed. At that time, the three experiments for behavioral evaluation were performed according to a method known in the art.
All behavior evaluations were recorded with a computerized video-tracking system (SMART; Panlab S. I., Barcelona, Spain) and a webcam recording system (HD Webcam C210, Logitech, Newark, CA, USA). At that time, the background sound in the test room was set to 65 dB of white noise, and all behavioral tests were performed during the photoperiod (9 a.m. to 3 p.m.).
Specifically, the mice prepared in Example 1.1 above were repeatedly exposed to two objects of the same shape twice at intervals of 10 minutes in an open field (familiarization). […] In addition, two hours after the habituation of the mice was completed, the mice were exposed to a novel object and an old object, and then the time taken for the mouse to recognize each object was measured [2-hour-NOR (novel object recognition) experiment]. Thereafter, the mice returned to their home cage, and then the location of one of the just-exposed objects was moved, and then object distinguishment and recognition time were measured [2-hour-NLR (novel position recognition) experiment]. Thereafter, 24 hours after the habituation of the mice was completed, the mice were exposed to another object and an old object, and then the time taken for the mouse to approach each object was measured (24-hour-NOR experiment). […]

[3] = system: Tg-APP/PS1 mice; assay: MAP-2 immunofluorescence staining of hippocampal CA1 region; assay type: in vivo, mouse; details: 4 times for 2 weeks
From the text: Long-term memory is regulated at synapses between axons of neurons and dendrites of target neurons, and the microstructure of neurons is greatly influenced by the state of neuron health. Changes in the microstructure of dendrites of neurons are important for maintaining memory. The microstructure of the dendrites of such neurons can be observed as an image by staining with an anti-MAP-2 antibody (GeneTex, CatNo. GTX133109) located in the dendrites.
Therefore, in order to determine the mechanism of action of cognitive function improvement and memory recovery effects of GI210B1, the Tg-APP/PS1 mice administered with GI210B1 (Tg+GI210B1), the wild type mice (WT) as a normal group, and the Tg-APP/PS1 mice (Tg or Tg+Veh) as a control group were sacrificed, and then the brain tissue was extracted, and the microstructural status of the dendrites (dendritic process) of the hippocampus was analyzed.
In the same manner as in Example 1.4.1 above, the mice from each group were sacrificed, and then the brain tissue was extracted, and the microstructural status of the dendrites of the hippocampus was analyzed.

[4] = system: Tg-APP/PS1 mice; assay: Ki-67 staining of hippocampal DG region; assay type: in vivo, mouse; details: Example 1; GI210B1 1.2 mg/kg intraperitoneal, 4 times for 2 weeks
From the text: Ki-67 is a protein expressed in the nucleus during cell division.
In order to confirm the effect of GI210B1 on the decreased neurogenesis in the DG region of the hippocampus of Tg mice, the Tg-APP/PS1 mice administered with GI210B1 (Tg+GI210B1), the wild type mice (WT) as a normal group, and the Tg-APP/PS1 mice (Tg) as a control group were sacrificed, and then the brain was extracted, and the DG region of the hippocampus was fluorescently stained with Ki-67.

“GI210B1: fusion protein dimer comprising GLP-1 (SEQ ID NO: 2), IgG4 Fc domain and IL-1Ra; SEQ ID NO: 10” was tested, and the “Ka(Association rate, 1/Ms)” value [1] was 22000 M⁻¹ s⁻¹, the “Kd(dissociation rate, 1/s)” value [1] was 0.0093 s⁻¹ and the “recognition of a novel object, 24-hour-NOR experiment” value [2] was “recognized a novel object for a longer time at a similar level to the normal group (WT)”. The “time taken for the mouse to recognize an object whose location was changed, 2-hour-NLR experiment” value [2] was “increased similar to the normal group”, the “time taken for the mouse to recognize a novel object, 2-hour-NOR experiment” value ([2]; tested at 7.5 to 8.0 months) was “increased similar to the normal group (WT)” and the “expression level of MAP-2 in the CA1 region of the hippocampus” value ([3]; Example 1, GI210B1 1.2 mg/kg intraperitoneal) was “recovered to the level of the normal group (WT)”. For the same substance, the “expression level of MAP-2 in the CA1 region of the hippocampus” value ([3]; Example 2, GI210B1, GI210B1C1, GI210B1CN at 1.2, 0.7778, 1.1745 mg/kg intraperitoneal) was “higher than that of the control group (Tg+Veh)” and the “number of Ki-67 positive cells in the DG region of the hippocampus” value [4] was “increased compared to the Tg-APP/PS1 mice (Tg), which was a level similar to that of the normal group (WT)”.
